What was measured:
mice = experiment: mRNA translation efficiency in mice: LNP-mRNA by tail vein, luciferase in vivo imaging; settings: 1 µg LNP-mRNA; for protein expression levels in mice: 24 hours after administration, compared to Comparative Example 1; for distribution after tail vein administration: mice, in vivo imaging (FIG. 1)
Procedure: The tail of each mouse was gently wiped with an alcohol cotton ball, and 1 µg of an LNP-mRNA drug was injected via the tail vein using an insulin syringe. Twenty-four hours after the tail vein administration, the mouse was intraperitoneally injected with 10% chloral hydrate (anesthetized according to the mouse body weight, 50-60 µL/20 g). After the mouse was anesthetized, 150 µL of a prepared luminescent substrate (luminescent substrate concentration: 15 mg/mL, Cat. No. 2109GR001, brand: biofroxx) was intraperitoneally injected. Five minutes after the injection of the luminescent substrate into the mouse, the mouse was placed in a small animal in vivo imaging system. The corresponding luciferase channel was selected to capture an in vivo image of the mouse, and the image was saved. This procedure was repeated at other time points, and the exposure parameters should be kept consistent for comparison.

mRNA [1] = experiment: IVT capping rate of mRNA by LC-MS after RNase H cleavage; assay type: biochemical
Procedure: (§1) mRNA IVT reactions were performed using the cap analogs from the examples. Firstly, the required volumes of materials for the system were calculated, and then the samples were added (the IVT reaction system is shown in Table 1). Sterile enzyme-free water was added to the system, and then 10× buffer, NTPs, and the cap analog were sequentially added. The mixture was uniformly mixed and then gently centrifuged, followed by the addition of the nuclease inhibitor, the inorganic pyrophosphatase, the T7 RNA polymerase, and the linearized DNA template. The resulting mixture was thoroughly mixed, then gently centrifuged, and incubated at 37 °C. After 2 h, DNase I (1 U) was added, and the mixture was incubated at 37 °C for another 30 min to remove the DNA template. RNA purification was then performed using a magnetic bead purification method. The purified mRNA was dissolved in sterile enzyme-free water, and then quantitative detection was performed using Nanodrop One. Table 1. IVT reaction system
Liquid chromatography-mass spectrometry (LC-MS) was used to detect the IVT capping rates of mRNAs with different starting cap analogs. Firstly, a labeled (usually biotin-labeled) DNA probe matched with the starting base of the transcribed mRNA product was required to be designed, and streptavidin-labeled magnetic beads were washed, and then incubated with the synthesized DNA probe, mRNA, and 10× RNase H reaction buffer with slow mixing at room temperature for 30 min. Subsequently, 20 µL of RNase H (5 U/µL) was added, and the mixture was incubated at 37 °C for 3 h, with uniform mixing every half hour. After the incubation was completed, the magnetic beads were washed, and then 100 µL of 75% methanol heated to 80 °C was added to the washed magnetic beads. The mixture was heated to 80 °C on a heating plate, held for 3 min, and then placed on a magnetic rack. The supernatant was pipetted and dried at room temperature for 45 min to 10 µL by using an evaporation centrifuge. The sample was then resuspended in 50 µL of 100 µM EDTA/1% MeOH for LC-MS analysis to determine the capping of RNA in the transcription reaction. Since capped and uncapped bases have a distinct difference in molecular weight, the capping rates of mRNA transcription processes initiated with different cap analogs can be determined by utilizing this difference in molecular mass.

mRNA [2] = experiment: mRNA in vitro transcription (IVT) yield with cap analog; assay type: biochemical; settings: mRNA yield of IVT reaction, 37 °C 2 h, purified mRNA quantified by Nanodrop One
Procedure: as §1

Row | Structure (SMILES) | distribution after tail vein administration (mice) | Capping rate (%) (mRNA [1]) | protein expression levels in mice (mice) | Yield (µg) in 20 µL system (mRNA [2]) [µg]
1 | COC1C(O)C(n2c[n+](C)c3c(=O)[nH]c(N)nc32)OC1C1CC1P(=O)(O)OP(=O)(O)OP(=O)(O)OCC1OC(n2cnc3c(N)ncnc32)C(OC)C1OP(=O)(O)OCC1OC(n2cnc3c(=O)[nH]c(N)nc32)C(O)C1O (stereo not shown) [Compound 2] | mainly distributed in the liver | 98.4 | higher protein expression levels in mice compared to Comparative Example 1 | 117
2 | COCC1C(O)C(n2c[n+](C)c3c(=O)[nH]c(N)nc32)OC1C1CC1P(=O)(O)OP(=O)(O)OP(=O)(O)OCC1OC(n2cnc3c(N)ncnc32)C(OC)C1OP(=O)(O)OCC1OC(n2cnc3c(=O)[nH]c(N)nc32)C(O)C1O (stereo not shown) [Compound 5] |  | 96.3 |  | 110
3 | COC1C(OP(=O)(O)OCC2OC(n3cnc4c(=O)[nH]c(N)nc43)C(O)C2O)C(COP(=O)(O)OP(=O)(O)OP(=O)(O)C2CC2C2OC(n3c[n+](C)c4c(=O)[nH]c(N)nc43)C(F)C2O)OC1n1cnc2c(N)ncnc21 (stereo not shown) [Compound 9] |  | 94.5 |  | 98
4 | COC1C(OP(=O)(O)OCC2OC(n3cnc4c(=O)[nH]c(N)nc43)C(O)C2O)C(COP(=O)(O)OP(=O)(O)OP(=O)(O)C2CC2C2OC(n3c[n+](C)c4c(=O)[nH]c(N)nc43)C(O)C2CNC(C)=O)OC1n1cnc2c(N)ncnc21 (stereo not shown) [Compound 10] |  | 96.3 |  | 103
5 | CO[C@@H]1[C@H](OP(=O)(O)OC[C@H]2O[C@@H](n3cnc4c(=O)[nH]c(N)nc43)[C@H](O)[C@@H]2O)[C@@H](COP(O)(=S)OP(=O)(O)OP(=O)(O)C2CC2[C@H]2O[C@@H](n3c[n+](C)c4c(=O)[nH]c(N)nc43)[C@H](O)[C@@H]2O)O[C@H]1n1cnc2c(N)ncnc21 (stereo partly shown) [Compound 14] |  | 98.0 |  | 102
6 | CO[C@@H]1[C@H](OP(=O)(O)OC[C@H]2O[C@@H](n3cnc4c(=O)[nH]c(N)nc43)[C@H](O)[C@@H]2O)[C@@H](COP(=O)(O)OP(=O)(O)OP(=O)(O)OC2([C@H]3O[C@@H](n4c[n+](C)c5c(=O)[nH]c(N)nc54)[C@H](O)[C@@H]3O)CC2)O[C@H]1n1cnc2c(N)ncnc21 [Compound 31] | mainly distributed in the liver | 98.5 | higher protein expression levels in mice compared to Comparative Example 1 | 112
7 | CO[C@@H]1[C@H](OP(=O)(O)OC[C@H]2O[C@@H](n3cnc4c(=O)[nH]c(N)nc43)[C@H](O)[C@@H]2O)[C@@H](COP(=O)(O)OP(=O)(O)OP(=O)(O)OC2([C@H]3O[C@@H](n4c[n+](C)c5c(=O)[nH]c(N)nc54)[C@H](O)[C@@H]3OC)CC2)O[C@H]1n1cnc2c(N)ncnc21 [Compound 32] | mainly distributed in the liver | 98.9 | higher protein expression levels in mice compared to Comparative Example 1 | 116
8 | CO[C@@H]1[C@H](OP(=O)(O)OC[C@H]2O[C@@H](n3cnc4c(=O)[nH]c(N)nc43)[C@H](O)[C@@H]2O)[C@@H](COP(=O)(O)OP(=O)(O)OP(=O)(O)OC[C@H]2O[C@@H](n3c[n+](C)c4c(=O)[nH]c(N)nc43)[C@H](O)[C@@H]2O)O[C@H]1n1cnc2c(N)ncnc21 [Compound 43, reference compound] | mainly distributed in the liver | 96.1 |  | 105

Now from value to compound, other results behind:

Row | distribution after tail vein administration (mice) | Capping rate (%) (mRNA [1]) | Structure (SMILES) | protein expression levels in mice (mice) | Yield (µg) in 20 µL system (mRNA [2]) [µg]
9 | mainly distributed in the liver | 99.1 | COC1C(OP(=O)(O)OCC2OC(n3cnc4c(=O)[nH]c(N)nc43)C(O)C2O)C(COP(=O)(O)OP(=O)(O)OP(=O)(O)C2CC2C2OC(n3c[n+](C)c4c(=O)[nH]c(N)nc43)C(O)C2O)OC1n1cnc2c(N)ncnc21 (stereo not shown) [Compound 1] | higher protein expression levels in mice compared to Comparative Example 1 | 114
10 |  | 97.1 | CO[C@@H]1[C@H](OP(=O)(O)OC[C@H]2O[C@@H](n3cnc4c(=O)[nH]c(N)nc43)[C@H](O)[C@@H]2O)[C@@H](C2CC2P(=O)(O)OP(=O)(O)OP(=O)(O)OC[C@H]2O[C@@H](n3c[n+](C)c4c(=O)[nH]c(N)nc43)[C@H](O)[C@@H]2O)O[C@H]1n1cnc2c(N)ncnc21 (stereo partly shown) [Compound 21] |  | 99
11 |  | 96.0 | CO[C@@H]1[C@H](OP(=O)(O)C2CC2[C@H]2O[C@@H](n3cnc4c(=O)[nH]c(N)nc43)[C@H](O)[C@@H]2O)[C@@H](COP(=O)(O)OP(=O)(O)OP(=O)(O)OC[C@H]2O[C@@H](n3c[n+](C)c4c(=O)[nH]c(N)nc43)[C@H](O)[C@@H]2O)O[C@H]1n1cnc2c(N)ncnc21 (stereo partly shown) [Compound 22] |  | 115

Reference: EP4768492A1, “CAPPING COMPOUND, AND APPLICATION THEREOF IN MRNA CAPPING” (Jiangsu Synthgene Biotechnology Co., Ltd., priority 2023, dated 2025)
